Here are results for eight molecules from patent publication US20260250270A1, “Compound Used as Kinase Inhibitor and Use Thereof” (TYK MEDICINES, INC., priority 2022, published 2026).

The target of assay [1] is Ba/F3-FL-EGFR-A763-Y764 ins FQEA (Homo sapiens, UniProt P00533, INS763FQEA, cells depend on it). The assay can be described thus: Cell proliferation inhibition (CellTiter-Glo), EGFR exon 20 insertion engineered cells. The format is cell-based. Conditions: 72 h, read-out: IC50, Ba/F3-FL-EGFR A763-Y764ins FQEA. The method, then:
(§1) The selected engineering cells Ba/F3-FL-EGFR-V769-D770 ins ASV, Ba/F3-FL-EGFR-D770-N771 ins SVD, Ba/F3-FL-EGFR-H773-V774 ins NPH, Ba/F3-FL-EGFR-A763-Y764 ins FQEA, Ba/F3-HER2-A775-G776 ins YVMA were provided by Hefei PreceDo Biomedical Technology Co., LTD and were validated prior to use in this study.
(§2) A 20× stock of the compound to be tested was prepared for use, with 9 concentrations in 3-fold gradient dilution, diluted from 1 μM.
(§3) The logarithmic growth phase cell suspension was inoculated into 96-well white cell culture plates with 95 μL volume per well (2000 cells/well). 5 μL of 20× Compound to be tested was added to the plate containing 95 μL of cell suspension according to the plate spreading diagram, and then mixed well. The plate was incubated in a 5% CO2 incubator at 37° C. for 72 h. The proliferation inhibition activity of the compounds was determined by the CellTiter-Glo method, and the fluorescence value per well, RLU, was obtained from the SpectraMax Paradigm reading. Inhibition Rate data were processed using the following formula: Inhibition Rate (Inh %)=100−(RLU compound−RLU blank)/(RLU control−RLU blank)*100%. The cell viability corresponding to different concentrations of compounds was calculated in EXCEL, and then GraphPad Prism software was used to plot the cell viability curve and calculate the IC50 value.
(In general: In ATP-based viability assays light output follows the ATP content of the culture.)

Assay [2] deals with Ba/F3-FL-EGFR-D770-N771 ins SVD (Homo sapiens, UniProt P00533, DUP768-770, cells depend on it). The assay is described as above. The format is cell-based. The conditions noted are these: 72 h, read-out: IC50, Ba/F3-FL-EGFR D770-N771ins SVD. The procedure:
as §1, §2, §3

In assay [3] the target is Ba/F3-FL-EGFR-H773-V774 ins NPH (Homo sapiens, UniProt P00533, DUP771-773, cells depend on it). Described as above. Conditions: 72 h, read-out: IC50, Ba/F3-FL-EGFR H773-V774ins NPH. The format is cell-based. The procedure: as §1, §2, §3
For assay [4], the target named is Ba/F3-FL-EGFR-V769-D770 ins ASV (Homo sapiens, UniProt P00533, DUP767-769, cells depend on it). Described as above. The format is cell-based. Conditions: 72 h, read-out: IC50, Ba/F3-FL-EGFR V769-D770ins ASV. The procedure:
as §1, §2, §3

In assay [5] the target is Ba/F3-HER2-A775-G776 ins YVMA (Homo sapiens, UniProt P04626, DUP772-775, cells depend on it). The assay can be described thus: Cell proliferation inhibition (CellTiter-Glo), HER2 exon 20 insertion engineered cells. Type of assay: cell-based. The conditions noted are these: for GI50: 72 h, CellTiter-Glo, read-out: IC50, Ba/F3-HER2-A775-G776ins YVMA. The procedure:
as §1, §2, §3

The next assay has as its system NCI-H1975. Briefly: Cell proliferation inhibition (CellTiter-Glo) on cell line NCI-H1975. The format is cell-based. The conditions noted are these: Homo sapiens. The procedure: (§4) The cell lines NCI-H1975 and PC9 selected for the experiments were provided by Sino-American Guanke Biotechnology (Beijing) Co. and were validated prior to use in this study.
(§5) A 10× stock of the compound to be tested was prepared for use, with 9 concentrations in 4-fold gradient dilution, diluted from 10 μM.
(§6) The logarithmic growth phase cell suspension was inoculated into a 96-well culture plate with 90 μL volume per well (2000 cells/well). 10 μL of 10× Compound to be tested was added to the plate according to the plate spreading diagram, and then mixed well. The plate was incubated in a 5% CO2 incubator at 37° C. The proliferation inhibitory activity of the compound was determined by the CellTiter-Glo method. Cell proliferation inhibition rate (Inhibition Rate) data were plotted using GraphPad Prism 8.0 software for cell viability curves and IC50 values were calculated.

The next assay relates to PC9. The assay can be described thus: Cell proliferation inhibition (CellTiter-Glo) on cell line PC9. The conditions noted are these: Homo sapiens, PC-9. The format is cell-based. The procedure: as §4, §5, §6
For assay [6], the system named is Lung cancer LU0387PDX model. The assay can be described thus: Pharmacodynamic study on lung cancer LU0387PDX model. The format is in vivo, mice. The conditions noted are these: LU0387 model; for TGI (%): P.O, QD * 13 days. An excerpt:
Lung cancer LU0387PDX model is a commonly used xenograft tumor model from Crown Bioscience, the experimental situation of this model is described as follows: after euthanasia of tumor-bearing mice, the tumor blocks were dissected out in aseptic condition, the blocks were cleaned to remove blood stains and connective tissues and necrotic parts, and the tumors were cut into small pieces of 2*2*2 mm^3, and inoculated with an adapter needle in sterilized experimental mice subcutaneously on the right dorsal side. Tumor growth was regularly observed, and when the tumors grew to an average volume of 100~200 mm^3, mice were randomly grouped according to tumor size and body weight for drug administration. Before the start of drug administration, all animals were weighed and the tumor volume was measured with vernier calipers. Mice were randomly grouped according to tumor volume to ensure that tumor volumes were similar between groups. Three mice in each group were administered orally once daily, and the inoculation site was observed after administration. Tumor volume and mouse body weight were measured twice a week. The experimental design and results were shown in Table 9, wherein P.O referred to administered orally; QD: once a day; TGI (Tumor volume inhibition rate)=(1-Tumor weight of the treatment group/Tumor weight of the control group)*100%.

Assay [7] has as its system Ba/F3 EGFR D770_N771 ins SVD. The assay can be described thus: In vivo pharmacodynamic study, Ba/F3-EGFR-D770_N771 ins SVD subcutaneous xenograft model. Also noted: species or system nude mice. Conditions: 30 mg/kg, P.O, QD * 14 days. The method, then:
The experimental design and results were shown in Table 9, wherein P.O referred to administered orally; QD: once a day; TGI (Tumor volume inhibition rate)=(1-Tumor weight of the treatment group/Tumor weight of the control group)*100%. The cell line Ba/F3 EGFR D770_N771 ins SVD was cultured in 37° C., 5% CO2 with RPMI1640+10% fetal bovine serum+1% double antibody, and passaged 2-3 times a week. When the cell saturation was 80-90% and the number of cells met the requirement, the cells were collected. 0.2 mL (1*10^6) cells were subcutaneously inoculated into the right back of 6-8 weeks old female nude mice weighing 18-22 g. When the average tumor volume reached approximately 150-200 mm^3, grouping and drug administration started. Before the start of drug administration, all animals were weighed and the tumor volume was measured with vernier calipers. Mice were randomly grouped according to tumor volume to ensure that tumor volumes were similar between groups. Three mice in each group were administered orally once daily, and the inoculation site was observed after administration. Tumor volume and mouse body weight were measured twice a week.

Ba/F3-FL-EGFR-H773-V774 ins NPH, sequence (P00533 with tags, fused parts or gaps DUP771-773): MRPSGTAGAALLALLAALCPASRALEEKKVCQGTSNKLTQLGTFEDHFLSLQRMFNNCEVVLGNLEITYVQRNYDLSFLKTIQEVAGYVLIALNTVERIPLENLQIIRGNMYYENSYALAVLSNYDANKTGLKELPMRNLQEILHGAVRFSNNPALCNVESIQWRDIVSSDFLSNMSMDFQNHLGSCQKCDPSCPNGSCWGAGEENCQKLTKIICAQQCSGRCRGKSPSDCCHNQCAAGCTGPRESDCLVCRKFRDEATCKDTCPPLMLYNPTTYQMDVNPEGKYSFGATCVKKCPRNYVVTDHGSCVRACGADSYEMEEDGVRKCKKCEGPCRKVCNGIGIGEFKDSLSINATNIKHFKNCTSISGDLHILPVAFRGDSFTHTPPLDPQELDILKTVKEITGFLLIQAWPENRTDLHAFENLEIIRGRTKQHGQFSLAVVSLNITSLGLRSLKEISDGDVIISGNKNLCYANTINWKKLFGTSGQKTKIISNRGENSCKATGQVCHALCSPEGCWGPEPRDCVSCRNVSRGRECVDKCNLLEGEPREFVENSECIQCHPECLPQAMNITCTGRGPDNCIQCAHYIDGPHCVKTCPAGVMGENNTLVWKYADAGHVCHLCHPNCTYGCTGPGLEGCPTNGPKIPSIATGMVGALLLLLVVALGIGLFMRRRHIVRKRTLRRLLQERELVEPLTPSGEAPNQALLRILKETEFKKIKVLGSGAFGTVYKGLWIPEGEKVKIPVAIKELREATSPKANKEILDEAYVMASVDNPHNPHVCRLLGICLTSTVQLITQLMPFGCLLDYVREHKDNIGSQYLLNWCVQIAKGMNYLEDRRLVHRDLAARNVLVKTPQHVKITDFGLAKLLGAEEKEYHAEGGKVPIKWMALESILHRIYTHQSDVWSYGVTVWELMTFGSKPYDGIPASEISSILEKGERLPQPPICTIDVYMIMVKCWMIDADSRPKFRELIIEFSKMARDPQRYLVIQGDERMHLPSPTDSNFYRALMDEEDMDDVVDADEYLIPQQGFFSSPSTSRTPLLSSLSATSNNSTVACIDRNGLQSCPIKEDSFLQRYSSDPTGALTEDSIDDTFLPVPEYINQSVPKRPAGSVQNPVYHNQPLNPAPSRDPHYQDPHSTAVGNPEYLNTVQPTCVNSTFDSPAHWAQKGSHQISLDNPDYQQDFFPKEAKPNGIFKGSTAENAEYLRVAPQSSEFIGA
Ba/F3-FL-EGFR-V769-D770 ins ASV, sequence (P00533 with tags, fused parts or gaps DUP767-769): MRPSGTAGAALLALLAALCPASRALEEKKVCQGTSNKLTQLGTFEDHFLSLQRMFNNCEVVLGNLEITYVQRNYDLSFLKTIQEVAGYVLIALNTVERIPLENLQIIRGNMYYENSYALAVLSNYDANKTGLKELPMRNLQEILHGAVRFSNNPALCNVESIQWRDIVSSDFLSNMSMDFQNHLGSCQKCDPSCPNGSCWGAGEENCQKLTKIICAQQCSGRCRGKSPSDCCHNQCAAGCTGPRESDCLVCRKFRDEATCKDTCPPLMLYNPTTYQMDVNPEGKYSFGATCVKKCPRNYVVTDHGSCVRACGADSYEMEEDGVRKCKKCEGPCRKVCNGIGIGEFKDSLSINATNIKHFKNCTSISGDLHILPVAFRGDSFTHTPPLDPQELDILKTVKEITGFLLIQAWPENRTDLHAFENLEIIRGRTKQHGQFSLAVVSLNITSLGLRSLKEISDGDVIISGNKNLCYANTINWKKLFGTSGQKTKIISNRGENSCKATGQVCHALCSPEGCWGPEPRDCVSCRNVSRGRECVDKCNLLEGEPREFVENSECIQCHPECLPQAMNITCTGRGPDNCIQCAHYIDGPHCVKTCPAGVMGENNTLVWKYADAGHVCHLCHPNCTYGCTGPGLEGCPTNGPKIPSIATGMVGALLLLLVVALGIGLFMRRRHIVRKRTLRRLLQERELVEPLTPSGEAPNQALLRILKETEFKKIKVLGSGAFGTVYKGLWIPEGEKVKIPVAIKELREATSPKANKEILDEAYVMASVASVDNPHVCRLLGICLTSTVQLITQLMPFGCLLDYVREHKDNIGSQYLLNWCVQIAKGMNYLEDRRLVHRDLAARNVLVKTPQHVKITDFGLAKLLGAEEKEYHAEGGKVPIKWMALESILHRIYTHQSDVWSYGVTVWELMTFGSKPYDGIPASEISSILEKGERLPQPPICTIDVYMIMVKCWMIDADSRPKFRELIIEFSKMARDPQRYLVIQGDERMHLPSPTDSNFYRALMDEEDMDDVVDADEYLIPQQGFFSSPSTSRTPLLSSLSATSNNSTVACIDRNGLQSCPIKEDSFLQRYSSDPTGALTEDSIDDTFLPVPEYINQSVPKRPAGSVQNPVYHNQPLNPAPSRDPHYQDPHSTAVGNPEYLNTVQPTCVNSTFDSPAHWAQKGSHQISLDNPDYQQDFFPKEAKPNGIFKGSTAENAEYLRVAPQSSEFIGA
Ba/F3-FL-EGFR-D770-N771 ins SVD, sequence (P00533 with tags, fused parts or gaps DUP768-770): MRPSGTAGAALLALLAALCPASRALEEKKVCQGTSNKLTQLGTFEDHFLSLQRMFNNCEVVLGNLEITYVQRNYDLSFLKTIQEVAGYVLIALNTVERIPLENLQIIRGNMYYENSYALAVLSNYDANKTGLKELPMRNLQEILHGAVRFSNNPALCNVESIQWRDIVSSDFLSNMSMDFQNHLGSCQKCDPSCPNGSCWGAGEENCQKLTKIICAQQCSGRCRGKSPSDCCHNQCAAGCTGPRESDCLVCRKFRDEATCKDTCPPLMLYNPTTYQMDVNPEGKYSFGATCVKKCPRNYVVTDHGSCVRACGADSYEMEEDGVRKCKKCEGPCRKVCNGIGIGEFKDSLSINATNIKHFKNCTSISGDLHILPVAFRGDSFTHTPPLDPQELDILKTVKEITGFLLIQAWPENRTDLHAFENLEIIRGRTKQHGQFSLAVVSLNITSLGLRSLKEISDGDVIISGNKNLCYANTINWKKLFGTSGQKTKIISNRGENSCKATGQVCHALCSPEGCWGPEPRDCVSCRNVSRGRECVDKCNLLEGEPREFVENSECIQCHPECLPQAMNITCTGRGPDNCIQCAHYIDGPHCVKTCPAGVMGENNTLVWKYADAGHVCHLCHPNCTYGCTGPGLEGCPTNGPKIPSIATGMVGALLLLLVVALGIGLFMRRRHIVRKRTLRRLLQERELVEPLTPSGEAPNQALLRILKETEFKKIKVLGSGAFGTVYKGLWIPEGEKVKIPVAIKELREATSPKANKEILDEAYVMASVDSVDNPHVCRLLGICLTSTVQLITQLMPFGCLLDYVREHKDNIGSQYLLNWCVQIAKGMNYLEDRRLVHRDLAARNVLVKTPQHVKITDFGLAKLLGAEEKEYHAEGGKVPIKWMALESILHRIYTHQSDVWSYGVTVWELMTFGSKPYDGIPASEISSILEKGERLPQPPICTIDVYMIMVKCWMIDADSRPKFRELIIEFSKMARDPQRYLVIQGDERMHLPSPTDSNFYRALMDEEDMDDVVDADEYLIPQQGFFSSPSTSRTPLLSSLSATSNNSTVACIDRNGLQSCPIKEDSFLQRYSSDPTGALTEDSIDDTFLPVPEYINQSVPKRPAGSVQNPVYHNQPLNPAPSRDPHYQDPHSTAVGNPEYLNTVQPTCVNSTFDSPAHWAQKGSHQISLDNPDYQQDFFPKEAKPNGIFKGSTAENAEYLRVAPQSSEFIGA
Ba/F3-HER2-A775-G776 ins YVMA, sequence (P04626 with tags, fused parts or gaps DUP772-775): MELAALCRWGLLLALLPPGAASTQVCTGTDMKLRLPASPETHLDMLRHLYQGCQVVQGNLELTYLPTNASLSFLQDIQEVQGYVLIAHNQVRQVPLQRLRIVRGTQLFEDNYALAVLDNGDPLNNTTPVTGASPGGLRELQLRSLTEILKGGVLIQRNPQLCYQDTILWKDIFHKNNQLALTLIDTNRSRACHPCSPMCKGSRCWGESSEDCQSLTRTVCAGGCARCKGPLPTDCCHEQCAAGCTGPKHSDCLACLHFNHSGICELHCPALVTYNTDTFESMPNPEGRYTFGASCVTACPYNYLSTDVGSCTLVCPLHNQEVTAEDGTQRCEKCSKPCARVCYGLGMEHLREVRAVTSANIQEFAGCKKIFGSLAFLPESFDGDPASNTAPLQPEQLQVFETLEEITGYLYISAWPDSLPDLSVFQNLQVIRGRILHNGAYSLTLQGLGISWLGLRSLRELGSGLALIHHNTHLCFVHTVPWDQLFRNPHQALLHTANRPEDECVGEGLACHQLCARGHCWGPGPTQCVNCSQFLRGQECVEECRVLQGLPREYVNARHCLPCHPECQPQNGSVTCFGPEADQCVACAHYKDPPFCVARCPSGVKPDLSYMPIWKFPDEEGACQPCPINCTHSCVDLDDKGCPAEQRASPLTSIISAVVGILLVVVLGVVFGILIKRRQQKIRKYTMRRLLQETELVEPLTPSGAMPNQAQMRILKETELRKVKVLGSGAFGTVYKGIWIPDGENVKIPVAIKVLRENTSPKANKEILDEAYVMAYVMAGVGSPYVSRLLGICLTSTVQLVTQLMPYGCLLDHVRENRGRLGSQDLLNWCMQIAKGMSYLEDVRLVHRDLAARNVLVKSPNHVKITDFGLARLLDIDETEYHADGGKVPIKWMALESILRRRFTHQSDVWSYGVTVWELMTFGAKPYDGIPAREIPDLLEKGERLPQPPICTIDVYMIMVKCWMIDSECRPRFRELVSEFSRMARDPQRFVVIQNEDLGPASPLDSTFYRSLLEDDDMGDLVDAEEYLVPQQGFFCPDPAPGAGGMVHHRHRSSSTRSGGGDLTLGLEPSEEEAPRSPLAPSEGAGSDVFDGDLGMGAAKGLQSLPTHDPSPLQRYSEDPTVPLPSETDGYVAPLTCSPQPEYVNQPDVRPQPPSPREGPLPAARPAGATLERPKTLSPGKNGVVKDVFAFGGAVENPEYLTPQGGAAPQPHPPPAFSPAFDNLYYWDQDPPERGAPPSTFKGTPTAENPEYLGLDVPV

Broadly, the IC50 is the concentration at which inhibition is half-maximal. A low value points to inhibition by little substance. For the molecule `C=CC(=O)Nc1cc(Nc2ncc(C(=O)OC(C)C)c(-c3cn(C)c4ccccc34)n2)c(OC)cc1N(C)[C@@H]1[C@@H]2CN(C)C[C@@H]21` [Example 1], the GI50 in assay [1], in [2], in assay [3], in assay [4] and in assay [5] was not above 0.03 µM each time. The IC50 in the assay with NCI-H1975 and in the assay on PC9 was not above 0.03 µM in each case. Also, the “TGI (%)” value in assay [6] (30 mg/kg) is 79.01%; in [6] (50 mg/kg), 97.44%; in assay [7], 61.08%. Also, in assay [6] (same dose), the “efficacy compared with controls (FIG. 1, tumor volume)” value was “superior to that of TAK-788 and DZD9008”.
For `[2H]C([2H])([2H])n1cc(-c2nc(Nc3cc(NC(=O)C=C)c(N(C)[C@@H]4[C@@H]5CN(C)C[C@@H]54)cc3OC)ncc2C(=O)OC(C)C)c2ccccc21` [Example 2], the GI50 in [1], in [2], in [3] and in [4] was not above 0.03 µM in each case.
On to `[2H]C([2H])([2H])N(c1cc(OC)c(Nc2ncc(C(=O)OC(C)C)c(-c3cn(C)c4ccccc34)n2)cc1NC(=O)C=C)[C@@H]1[C@@H]2CN(C)C[C@@H]21` [Example 3], for which the GI50 in [1], in assay [2], in assay [3] and in [4] was not above 0.03 µM throughout.
In the case of `C=CC(=O)Nc1cc(Nc2ncc(-c3nnc(C)o3)c(-c3cn(C)c4ccccc34)n2)c(OC)cc1N(C)[C@@H]1[C@@H]2CN(C)C[C@@H]21` [Example 5], the GI50 in assay [1], in assay [2], in assay [3], in assay [4] and in [5] was not above 0.03 µM in each case. For the same molecule, the “cellular activity against HER2 exon 20 insertion mutations compared with controls” value in assay [5] (Table 7) is “comparable to that of TAK-788 and superior to that of DZD9008”. In addition, the IC50 with NCI-H1975 and in the assay on PC9 was not above 0.03 µM in each case. The “TGI (%)” value is on record as 66.90% in assay [6] (30 mg/kg) and 59.51% in [7].
Turning to `[2H]C([2H])([2H])N(c1cc(OC)c(Nc2ncc(-c3nnc(C)o3)c(-c3cn(C)c4ccccc34)n2)cc1NC(=O)C=C)[C@@H]1[C@@H]2CN(C)C[C@@H]21` [Example 7], the GI50 in assay [1], in [2], in [3] and in assay [4] was not above 0.03 µM throughout.
As for `[2H]C([2H])([2H])N1C[C@@H]2[C@H](C1)[C@@H]2N(C)c1cc(OC)c(Nc2ncc(-c3nnc(C)o3)c(-c3cn(C)c4ccccc34)n2)cc1NC(=O)C=C` [Example 8], the GI50 in [1], in assay [2], in [3] and in assay [4] was not above 0.03 µM in each case.
For `C=CC(=O)Nc1cc(Nc2ncc(-c3nnc(C)o3)c(-c3cn(C)c4ccccc34)n2)c(OC)cc1N(C)[C@H]1[C@@H]2CN(C)C[C@@H]21` [Example 18, reference compound], the “TGI (%)” value in assay [7] is on record as 32.22%.
The same measure, in the same setting: to `C=CC(=O)Nc1cc(Nc2ncc(C(=O)OC(C)C)c(-c3cn(C)c4ccccc34)n2)c(OC)cc1N(C)[C@H]1[C@@H]2CN(C)C[C@@H]21` [Example 40, reference compound] belongs 37.84%.
